Common to all, as to test: NCI-60 cell line screen, 48 h
For experiment [1], the system named is 786-0 renal.
Experiment [2] concerns A498 renal.
Experiment [3] has as its system ACHN renal.
The test system of experiment [4] is BT-549 breast.
The test system of experiment [5] is CAKI-1 renal.
In experiment [6] the test system is EKVX NSCLC.
The test system of experiment [7] is HCT-15 colon.
Experiment [8] has as its system HT29 colon.
Experiment [9] concerns K-562 leukemia.
Experiment [10] has as its system KM12 colon.
Experiment [11] concerns LOX IMVI melanoma.
The subject of experiment [12] is NCI-H226 lung.
Experiment [13] concerns NCI-H23 lung.
Experiment [14] relates to OVCAR-5 ovarian.
Experiment [15] has as its system SW-620 colon.
Experiment [16] deals with UACC-257 melanoma.
In experiment [17] the test system is UO-31 renal.

Structures are written as SMILES.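 Compound exposure: 48 hours, 5 concentrations, 96-well plates. The concentration for full growth arrest is given as TGI.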

Turning to `CCCCCCOc1ccc(C(=O)NOCc2ccccc2)cc1`, the TGI in experiment [1], in experiment [2], in [3], in experiment [4], in experiment [5] and in experiment [6] was > 100 µM in each case. In addition, the TGI in experiment [7], in experiment [8], in [9], in experiment [10], in [11] and in [12] was > 100 µM in each case. Also, the TGI in experiment [13], in [14], in experiment [15], in experiment [16] and in experiment [17] was > 100 µM throughout.

For the compound `COCC1OC(OC2C3=C(C(C)C)CCC3(C)/C=C3\C(CCC3(O)COC)C(C)C2O)C(O)C2OC3OC12OC3(C)C1CO1` (configuration not stated), the TGI in experiment [1] is > 100 µM; in [2], > 100 µM; in experiment [3], > 100 µM; in [4], 87.8 µM; in experiment [5] it was 99.7 µM; in experiment [6] it was > 100 µM. Further, the TGI is > 100 µM in experiment [7]; > 100 µM in experiment [8]; > 100 µM in [9]; > 100 µM in experiment [10]; 99.3 µM in experiment [11]; 43.1 µM in experiment [12]. Also, the TGI in experiment [13] is > 100 µM; in experiment [14] it was > 100 µM; in experiment [15] it was > 100 µM; in experiment [16], > 100 µM; in experiment [17], 72.1 µM.

In the case of `CCc1n[nH]c(=O)n1/N=C/c1ccccc1Cl`, the TGI is > 100 µM in [1]; > 100 µM in [2]; > 100 µM in [3]; > 100 µM in experiment [4]; > 100 µM in experiment [5]; 29.4 µM in [6]. Moreover, the TGI in [7], in experiment [8], in [9], in experiment [10], in experiment [11] and in [12] was > 100 µM each time. The TGI in experiment [13], in experiment [14], in experiment [15], in experiment [16] and in experiment [17] was > 100 µM each time.

`O=C1NC(Cc2c[nH]c3ccccc23)C(=O)N2C(C3CCCCC3)c3[nH]c4ccccc4c3C[C@@H]12` (some centres not stated): the TGI was found to be 28.5 µM in [1]; 37.5 µM in experiment [2]; 77.4 µM in [3]; 40.8 µM in experiment [4]; 55.8 µM in [5]; 57.2 µM in experiment [6]. For the same compound, the TGI in [7] is 35.9 µM; in experiment [8] it was 29.6 µM; in [9], 44.8 µM; in experiment [10], 31.4 µM; in experiment [11], 28.1 µM; in experiment [12], 65.7 µM. For the same compound, the TGI is 51 µM in experiment [13]; 43 µM in experiment [14]; 73.7 µM in experiment [15]; 29 µM in experiment [16]; 33.2 µM in [17].

For the compound `O=C(O)C1CCCN1Cc1cc2ccccc2c2ccccc12` (configuration not stated), the TGI in experiment [1], in experiment [2], in experiment [3], in experiment [4], in experiment [5] and in [6] was > 100 µM throughout. Further, the TGI in [7], in experiment [8], in [9], in experiment [10], in [11] and in experiment [12] was > 100 µM throughout. The TGI in experiment [13], in experiment [14], in experiment [15], in experiment [16] and in experiment [17] was > 100 µM throughout.

Consider `COC(=O)C(O)P(=O)(OC)OC` (configuration not stated), for which the TGI in experiment [1], in [2], in [3], in experiment [4], in [5] and in experiment [6] was > 100 µM throughout. Moreover, the TGI in [7], in [8], in experiment [9], in experiment [10], in experiment [11] and in [12] was > 100 µM each time. Also, the TGI in [13], in [14], in experiment [15], in [16] and in experiment [17] was > 100 µM each time.

For the compound `O=C/C(=C(/Br)I)c1ccccc1`, the TGI in experiment [1] amounted to 5.38 µM; in experiment [2], 33.9 µM; in experiment [3], 9.63 µM; in experiment [4] it was 4.86 µM; in experiment [5], 4.15 µM; in [6], 28.6 µM. The TGI in [7] worked out at 5.65 µM; in [8], 5.29 µM; in experiment [9] it was 3.85 µM; in experiment [10], 19 µM; in experiment [11], 10.9 µM; in experiment [12], 26 µM. For the same compound, the TGI in experiment [13] turned out to be 12.7 µM; in [14], 23.6 µM; in experiment [15] it was 2.75 µM; in [16], 17.8 µM; in experiment [17], 9.32 µM.

Regarding `Cc1cn(C2CCC(/C=N\O)O2)c(=O)[nH]c1=O` (configuration not stated), the TGI in experiment [1], in experiment [2], in experiment [3], in [4], in experiment [5] and in experiment [6] was > 100 µM in each case. Further, the TGI in experiment [7], in experiment [8], in experiment [9], in experiment [10], in experiment [11] and in experiment [12] was > 100 µM throughout. For the same compound, the TGI in experiment [13], in experiment [14], in [15], in experiment [16] and in experiment [17] was > 100 µM throughout.

As to `CN1CN(c2ccccc2)C2(CCN(CCCSc3ccccc3NC(=O)/C=C/c3ccccc3)CC2)C1=O`, the TGI is 29.9 µM in experiment [1]; 6.98 µM in experiment [2]; 9.81 µM in experiment [3]; 12 µM in experiment [4]; > 26.5 µM in experiment [5]; 44.5 µM in experiment [6]. For the same compound, the TGI in experiment [7] turned out to be 26.5 µM; in experiment [8] it was 5.75 µM; in experiment [9] it was 15.6 µM; in experiment [10] it was 17.9 µM; in experiment [11], 4.61 µM; in experiment [12] it was 5.56 µM. Besides, the TGI is 25.1 µM in experiment [13]; > 60.5 µM in experiment [14]; 26.3 µM in experiment [15]; 3.34 µM in [16]; 14.1 µM in experiment [17].

For `CC(N)C(C)Cc1ccccc1` (configuration not stated), the TGI in experiment [1], in experiment [2], in experiment [3], in experiment [4], in experiment [5] and in experiment [6] was > 100 µM throughout. For the same compound, the TGI in experiment [7], in [8], in experiment [9], in [10], in experiment [11] and in [12] was > 100 µM in each case. The TGI in [13], in experiment [14], in experiment [15], in [16] and in [17] was > 100 µM throughout.

For the compound `O=[N+]([O-])c1ccc(C2=NOC(c3ccccc3F)N2C23CC4CC(CC(C4)C2)C3)cc1` (configuration not stated), the TGI in experiment [1], in [2], in experiment [3], in experiment [4], in experiment [5] and in [6] was > 100 µM in each case. For the same compound, the TGI in experiment [7], in [8], in experiment [9], in experiment [10], in experiment [11] and in experiment [12] was > 100 µM in each case. In addition, the TGI in [13], in experiment [14], in experiment [15], in experiment [16] and in [17] was > 100 µM throughout.

Regarding `Cn1c(=O)cc(NCc2ccc(Cl)cc2)[nH]c1=O`, the TGI in experiment [1], in experiment [2], in experiment [3], in [4], in [5] and in experiment [6] was > 100 µM throughout. Further, the TGI in [7], in experiment [8], in experiment [9], in [10], in experiment [11] and in experiment [12] was > 100 µM each time. Besides, the TGI in experiment [13], in experiment [14], in [15], in [16] and in experiment [17] was > 100 µM in each case.

As to `O=c1cc(N2CCOCC2)[nH]c(=O)n1-c1cccc(C(F)(F)F)c1`, the TGI in [1], in [2], in experiment [3], in experiment [4], in experiment [5] and in experiment [6] was > 100 µM throughout. Besides, the TGI in experiment [7], in experiment [8], in experiment [9], in experiment [10], in experiment [11] and in [12] was > 100 µM throughout. Moreover, the TGI in experiment [13], in experiment [14], in experiment [15], in [16] and in experiment [17] was > 100 µM each time.

Take `CC(C)C1(C)N=C(C(F)(F)F)c2cc(C(=O)C(F)(F)F)c3ccccc3c2N1` (configuration not stated): the TGI in experiment [1] was 15.8 µM; in [2], 28.7 µM; in experiment [3] it was 12 µM; in experiment [4], 10.7 µM; in experiment [5], 9.74 µM; in experiment [6], 18.4 µM. Moreover, the TGI is 14.1 µM in [7]; 13.5 µM in experiment [8]; > 100 µM in experiment [9]; 12.7 µM in experiment [10]; 7.01 µM in experiment [11]; 30.4 µM in experiment [12]. For the same compound, the TGI in experiment [13] was 8.12 µM; in [14] it was 24.5 µM; in [15], > 51.6 µM; in experiment [16] it was 19.5 µM; in [17] it was 14.1 µM.

On to `CC(C)NC(=O)CN1CCN(C2=CC(=O)c3c(O)ccc(O)c3C2=O)CC1`, for which the TGI was 42.4 µM in experiment [1]; 46 µM in experiment [2]; 54.1 µM in experiment [3]; 32.1 µM in [4]; > 60.7 µM in experiment [5]; 33.6 µM in experiment [6]. For the same compound, the TGI in experiment [7] was 45.3 µM; in experiment [8], 12.3 µM; in [9], > 100 µM; in experiment [10], 33.2 µM; in experiment [11], 19.6 µM; in [12] it was > 68.8 µM. In addition, the TGI is 24.3 µM in experiment [13]; 33.5 µM in experiment [14]; 14.4 µM in experiment [15]; 19.8 µM in [16]; 33.2 µM in experiment [17].

For the compound `COc1ccc(C2SCC(=O)N2c2ccc(-n3c(-c4ccccc4)nc4ccccc4c3=O)cc2)cc1OC` (configuration not stated), the TGI in [1], in experiment [2], in experiment [3], in experiment [4], in [5] and in experiment [6] was > 100 µM throughout. Moreover, the TGI in experiment [7], in experiment [8], in experiment [9], in [10], in experiment [11] and in experiment [12] was > 100 µM throughout. Also, the TGI in experiment [13], in experiment [14], in experiment [15], in [16] and in [17] was > 100 µM throughout.

The values are drawn from PubChem BioAssay (NCI).
